From patent publication US7740841B1, “Therapeutic method for reducing angiogenesis” (Sunnybrook Health Science Center, priority 2000, dated 2010)

What was measured:
HUVEC = assay: In vitro drug sensitivity, 3H-thymidine incorporation; assay type: cell-based, human; conditions: 24 hours
Text: (§1) Cells and culture conditions: Neuroblastoma cell lines SK-N-MC, SK-N-AS were obtained from American Type Culture Collection (ATCC) and expanded as a monolayer culture by serial passage on tissue culture plates (Nunc, Denmark) in DMEM, 5% fetal bovine serum (Gibco, Grand Island, N.Y., USA). Human umbilical vein endothelial cells (HUVEC) (Clonetics, San Diego, Calif.) were expanded on 1% gelatin-coated tissue culture plates in MCDB131 culture medium (JRH Biosciences, Lenexa, Kans., USA) supplemented with 5 ng/ml bFGF (R&D, Minneapolis, Minn.), 10 units/ml heparin (Wyeth-Ayerst Canada), 10 ng/ml EGF (UBI, Lake Placid, N.Y.) and 10% fetal bovine serum.
(§2) In vitro determination of drug sensitivity: Three thousand cells in 200 μl growth media per well were plated in 96-well flat bottom tissue culture plates (Nunc, Denmark) and incubated at 37° C., 5% CO2 for 24 hours prior to initiation of treatment. […] The cells were then pulsed for 6 hrs with 2 μCi/well of methyl-^3H-thymidine (Amersham Life Science, Buckinghamshire, England). The plates were frozen, thawed and the DNA harvested onto a filtermat using a Titertek Cell Harvester. Incorporated radioactivity was measured on Wallac 1205 BetaPlate Scintillation Counter (Wallac Oy, Finland) and proliferation was expressed as a percentage of ^3H-thymidine in treated cells vs. that in controls.
(§3) All three cell lines were grown in DMEM with […], but the HUVEC were grown on gelatinized plates and in the presence of additional growth factors (bFGF and EGF).

SK-N-AS cells = assay: as above; assay type: cell-based, human; conditions: 100-400 ng/ml, 24 hours
Text: as §1, §2, §3

SK-N-MC cells = assay: as above; assay type: cell-based, human; conditions: 100-400 ng/ml, 24 hours
Text: as §1
In vitro determination of drug sensitivity: Three thousand cells in 200 μl growth media per well were plated in 96-well flat bottom tissue culture plates (Nunc, Denmark) and incubated at 37° C., 5% CO2 for 24 hours prior to initiation of treatment. The cells were then washed with PBS and treated with 1-500 ng/ml vinblastine sulphate (Calbiochem, La Jolla, Calif.) for 24 hours, in groups of eight wells per dose. […] Incorporated radioactivity was measured on Wallac 1205 BetaPlate Scintillation Counter (Wallac Oy, Finland) and proliferation was expressed as a percentage of ^3H-thymidine in treated cells vs. that in controls. […]

[1] = test system: SK-N-MC neuroepithelioma or SK-N-AS neuroblastoma xenografts; assay: In vivo tumor growth assessment, subcutaneous xenografts; design: species or system CB-17 SCID mice; conditions: established ~0.75 cm^3 xenografts; DC101 800 μg i.p. every three days; low-dose vinblastine
Protocol: In vivo tumor growth assessment: SK-N-MC, cells were harvested using 1% Trypsin EDTA (GibcoBRL, Gaithesburg, Md.), and single cell suspension of 2×10^6 cells in 0.2 ml of growth media was injected subcutaneously into the flanks of 4-6 week old CB-17 SCID mice (Charles River, St-Constant, Quebec). Approximately 3 weeks later, most tumors had grown to ˜0.75 cm^3, and mice were randomized into groups of 5 animals. Two independent experiments were performed, each totaling 20 animals in 4 groups. The treatment was as follows:
Group I (Control)—0.4 ml of PBS (DC101 vehicle) i.p. every three days and 0.15 ml injectable saline (vinblastine vehicle) i.p. every three days.
Group II—0.4 ml of 2 mg/ml DC101 antibody (800 μg/mouse) (24) every three days and 0.15 ml of injectable saline i.p. every three days
Group III—vinblastine sulfate 0.75 mg/m^2 i.p. bolus at the start of therapy, followed by 1 mg/m^2/day via subcutaneous Alzet osmotic pumps (Alza Corp, Palo Alto, Calif.) for 3 weeks, followed by maintenance therapy with 0.15 ml of 0.067 mg/ml vinblastine sulfate (1.5 mg/m^2) i.p. every three days, and 0.4 ml of PBS i.p. every three days
Group IV—combination of DC101 and vinblastine at doses identical to the single agent groups. […]

[2] = test system: neuroblastoma xenograft tumors; assay: Histopathologic analysis of tumors (H/E and TUNEL); assay type: in vivo, CB-17 SCID mice; conditions: excised tumors; combination group at 7.5 weeks of treatment
Text: Histology: All tumors were excised, fixed in 10% (v/v) formalin and processed for immunohistochemical analysis. To obtain adequate tissue for the combination treatment group, two mice were sacrificed at 7.5 weeks of treatment. Paraffin blocks were cut to 5 μm sections and stained with haematoxylin/eosin for morphology evaluation and with Apoptosis Detection System (Promega, Madison, Wis.) for assessment of programmed cell death.
Histopathologic analysis: To further elucidate the mechanisms involved in the tumor regression following treatment with vinblastine, DC101, or the combined therapy, tissue histopathology assessment was undertaken. Cancer cells with high nuclear to cytoplasmic ratio form cuffs around central vessels, and apoptotic cells characterized by pyknotic nuclei and cytoplasmic blebbing, are only evident as a thin rim at the periphery of the cuffs. The nuclei of these cells stain strongly for terminal deoxynucleotidyl transferase (TUNEL) reactivity, as expected for cells undergoing apoptosis. […] There is a close similarity of the appearance of H/E and TUNEL stain. […] Rather than a typical single layer of flattened endothelial cells surrounding the vascular lumen in untreated group, we observed edema, and detachment from surrounding basement membrane and leading to complete vascular wall disintegration and tumor cell death.

[3] = test system: SK-N-AS human neuroblastoma xenografts; assay: Tumor perfusion by FITC-Dextran fluorescence; assay type: in vivo, CB-17 SCID mice; conditions: vinblastine 1 mg/m^2 i.p. and/or DC101 800 μg i.p. every three days, 10 days
Protocol: Relative tumor vascularity assessed by an FITC-Dextran perfusion assay: The method was designed to assess the relative functionality of the tumor vasculature. 2×10^6 SK-N-AS neuroblastoma cells were injected into the flanks of CB-17 SCID mice. Tumors were allowed to grow to approximately 0.75 cm^3 at which point tumor bearing mice were then treated with 1 mg/m^2 vinblastine i.p. every three days, 800 μg DC101 i.p. every three days, combination of the two agents or saline as a control. […] Fluorescence readings were obtained on a FL600 Fluorescence Plate Reader (Bio-tek Instruments Inc., Winooski, Vt., USA), from a standard curve created by serial dilution of the FITC-dextran used for injection. The ratio of tumor fluorescence:plasma fluorescence was assumed to be reflective of the degree of tumor perfusion.
Tumor perfusion by assessment of intravascular fluorescence: To further explore the possibility that tumor regression induced with treatment using DC101 and vinblastine was indeed due to the vascular injury, rather than a direct anti-tumor cell effect, we assessed tumor perfusion directly by using a FITC-Dextran fluorescence method. […]

[4] = test system: bFGF induced vascularization; assay: In vivo Matrigel plug angiogenesis assay; design: species or system Balb/cJ mice; conditions: DC101 800 μg i.p. and/or vinblastine 1 mg/m^2 i.p. on day 4 and 7, sacrifice day 10
[5] = mouse, in vivo
[6] = mouse, in vivo; cited from earlier work

With `CC[C@]1(O)C[C@@H]2CN(CCc3c([nH]c4ccccc34)[C@@](C(=O)OC)(c3cc4c(cc3OC)N(C)[C@H]3[C@@](O)(C(=O)OC)[C@H](OC(C)=O)[C@]5(CC)C=CCN6CC[C@]43[C@@H]65)C2)C1` [vinblastine, vinblastine sulphate] the “inhibition of proliferation (3H-thymidine incorporation)” value (“inhibition of proliferation” below) (HUVEC; 0.78 ng/ml) was “retained almost the same degree of inhibitory activity”, the “inhibition of proliferation” value (HUVEC; 100-400 ng/ml) was “strongly inhibited, especially HUVEC” and the “inhibition of proliferation” value (SK-N-AS cells) was “strongly inhibited”. The “inhibition of proliferation” value (SK-N-MC cells) was “strongly inhibited”, the “effect on tumor growth” value [1] was “significant, albeit not sustained, regression of tumor growth” and the “tumor histology (H/E, TUNEL apoptosis)” value [2] was “increase in the width of the apoptotic rims”. For the same molecule, the “decrease in tumor perfusion (tumor:plasma fluorescence)” value [3] was 41%, the “bFGF induced vascularization of Matrigel plug (plug:plasma fluorescence)” value [4] was 62.5 % of the positive control group and the “body weight / toxicity profile” value [5] was “some weight gain retardation, but the differences never became significantly different from controls”. For the same molecule, the “MTD in mice relative to MTD in humans” value [6] was 4-5 times.
